Where “and” joins values, the source holds several entries; their conditions need not be identical. Identical values can stand only once. Inconclusive results and toxic doses are left out. Starred links: 1 amine or outer side, 2 acyl side, 3 side chain; linkers in the order of their positions; H or OH if unused. Positions of bridges follow the written chain, without caps; N, C: chain ends. Non-standard residues stand in square brackets, D forms with d. Residues, ends and D or L forms follow the SMILES beside them. Chains are numbered I, II in the order given. Actinocin(9to1) = Cc1c2oc3c(C)ccc(C(=O)[*:1])c3nc-2c(C(=O)[*:2])c(N)c1=O; aThr = C[C@H](O)[C@H](N)C(=O)O; NMeV = CN[C@H](C(=O)O)C(C)C; Sar = CNCC(=O)O
System: BDF1 mice, P388 leukemia ip, median survival T/C
Test: NCI In Vivo Anticancer Drug Screen. Data for tumor model P388 Leukemia (intraperitoneal) in B6D2F1 (BDF1) mice
Conditions: endpoint: median survival time, higher = longer survival
In short: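 Survival ratio, drug arm over vehicle arm, in mice with a transplanted tumour.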

Cc1c2oc3c(C)ccc(C(=O)N[C@@H]4C(=O)N[C@H](C(C)C)C(=O)N5CCC[C@H]5C(=O)N(C)CC(=O)N(C)[C@@H](C(C)C)C(=O)O[C@H]4C)c3nc-2c(C(=O)N[C@@H]2C(=O)N[C@H](C(C)C)C(=O)N3CCC[C@H]3C(=O)N(C)CC(=O)N(C)[C@@H](C(C)C)C(=O)O[C@H]2C)c(N)c1=O (I: [aThr][dV]P[Sar][NMeV] / II: [aThr][dV]P[Sar][NMeV]; ester I:1-I:C, II:1-II:C; linker I:N-II:N via Actinocin(9to1))
T/C (dose: 0.03 mg/kg/injection, schedule: Q01DX009 (ip), vehicle: saline): 233 % of control | T/C (dose: 0.03 mg/kg/injection, schedule: Q04DX003 (ip), vehicle: saline + alcohol): 161 % of control | T/C (dose: 0.06 mg/kg/injection, schedule: Q04DX003 (ip), vehicle: saline + alcohol): 157 % of control | T/C (dose: 0.07 mg/kg/injection, schedule: Q01DX009 (ip), vehicle: saline): 250 % of control | T/C (dose: 0.1 mg/kg/injection, schedule: Q01DX001 (ip), vehicle: saline): 194 % of control | T/C (dose: 0.13 mg/kg/injection, schedule: Q01DX009 (ip), vehicle: saline): 100 % of control | T/C (dose: 0.13 mg/kg/injection, schedule: Q04DX003 (ip), vehicle: saline + alcohol): 184 % of control | T/C (dose: 0.2 mg/kg/injection, schedule: Q01DX001 (ip), vehicle: saline): 225 % of control | T/C (dose: 0.25 mg/kg/injection, schedule: Q01DX001 (ip), vehicle: saline): 178 % of control | T/C (dose: 0.26 mg/kg/injection, schedule: Q01DX001 (ip), vehicle: saline): 167 % of control | T/C (dose: 0.3 mg/kg/injection, schedule: Q04DX003 (ip), vehicle: saline): 100 % of control | T/C (dose: 0.35 mg/kg/injection, schedule: Q01DX001 (ip), vehicle: other): 166 % of control | T/C (dose: 0.35 mg/kg/injection, schedule: Q01DX001 (ip), vehicle: saline): 176 % of control and 185 % of control | T/C (dose: 0.35 mg/kg/injection, schedule: Q04DX003 (ip), vehicle: saline): 95 % of control | T/C (dose: 0.4 mg/kg/injection, schedule: Q01DX001 (ip), vehicle: water): 183 % of control | T/C (dose: 0.4 mg/kg/injection, schedule: Q04DX003 (ip), vehicle: saline): 90 % of control | T/C (dose: 0.5 mg/kg/injection, schedule: Q01DX001 (ip), vehicle: other): 192 % of control | T/C (dose: 0.5 mg/kg/injection, schedule: Q04DX003 (ip), vehicle: saline + alcohol): 79 % of control | T/C (dose: 0.54 mg/kg/injection, schedule: Q01DX001 (ip), vehicle: saline): 195 % of control | T/C (dose: 0.6 mg/kg/injection, schedule: Q01DX001 (ip), vehicle: saline): 223 % of control | T/C (dose: 0.8 mg/kg/injection, schedule: Q01DX001 (ip), vehicle: other): 236 % of control | T/C (dose: 0.9 mg/kg/injection, schedule: Q01DX001 (ip), vehicle: saline): 230 % of control | T/C (dose: 1.2 mg/kg/injection, schedule: Q01DX001 (ip), vehicle: saline): 225 % of control | T/C (dose: 3.1 micrograms/kg/injection, schedule: Q01DX001 (ip), vehicle: saline): 118 % of control | T/C (dose: 3.1 micrograms/kg/injection, schedule: Q01DX010 (ip), vehicle: saline): 170 % of control | T/C (dose: 3.1 micrograms/kg/injection, schedule: Q04DX003 (ip), vehicle: saline): 113 % of control | T/C (dose: 6.3 micrograms/kg/injection, schedule: Q01DX001 (ip), vehicle: saline): 122 % of control | T/C (dose: 12.5 micrograms/kg/injection, schedule: Q01DX009 (ip), vehicle: saline): 177 % of control | T/C (dose: 12.5 micrograms/kg/injection, schedule: Q01DX009 (ip), vehicle: water): 153 % of control | T/C (dose: 12.5 micrograms/kg/injection, schedule: Q01DX010 (ip), vehicle: saline): 225 % of control | T/C (dose: 12.5 micrograms/kg/injection, schedule: Q04DX003 (ip), vehicle: saline): 154 % of control | T/C (dose: 21.6 micrograms/kg/injection, schedule: Q01DX009 (ip), vehicle: saline + alcohol): 238 % of control | T/C (dose: 25.0 micrograms/kg/injection, schedule: Q01DX009 (ip), vehicle: saline + alcohol): 294 % of control and 162 % of control | T/C (dose: 25.0 micrograms/kg/injection, schedule: Q01DX009 (ip), vehicle: saline): 250 % of control and 274 % of control and 200 % of control | T/C (dose: 25.0 micrograms/kg/injection, schedule: Q01DX009 (ip), vehicle: water): 155 % of control | T/C (dose: 25.0 micrograms/kg/injection, schedule: Q01DX010 (ip), vehicle: saline): 245 % of control | T/C (dose: 25.0 micrograms/kg/injection, schedule: Q03HX024 (ip), vehicle: saline): 263 % of control | T/C (dose: 25.0 micrograms/kg/injection, schedule: Q04DX003 (ip), vehicle: saline): 154 % of control | T/C (dose: 30.0 micrograms/kg/injection, schedule: Q03HX024 (ip), vehicle: saline): 250 % of control | T/C (dose: 35.0 micrograms/kg/injection, schedule: Q03HX024 (ip), vehicle: saline): 100 % of control | T/C (dose: 36.0 micrograms/kg/injection, schedule: Q01DX009 (ip), vehicle: saline + alcohol): 241 % of control and 314 % of control | T/C (dose: 37.5 micrograms/kg/injection, schedule: Q01DX009 (ip), vehicle: saline + alcohol): 228 % of control and 169 % of control | T/C (dose: 38.9 micrograms/kg/injection, schedule: Q04DX003 (ip), vehicle: saline + alcohol): 174 % of control | T/C (dose: 50.0 micrograms/kg/injection, schedule: Q01DX001 (ip), vehicle: saline): 154 % of control | T/C (dose: 50.0 micrograms/kg/injection, schedule: Q01DX009 (ip), vehicle: saline + alcohol): 281 % of control and 294 % of control and 191 % of control | T/C (dose: 50.0 micrograms/kg/injection, schedule: Q01DX009 (ip), vehicle: saline): 268 % of control and 271 % of control and 352 % of control | T/C (dose: 50.0 micrograms/kg/injection, schedule: Q01DX009 (ip), vehicle: water): 301 % of control and 106 % of control | T/C (dose: 50.0 micrograms/kg/injection, schedule: Q01DX010 (ip), vehicle: other): 295 % of control | T/C (dose: 50.0 micrograms/kg/injection, schedule: Q01DX010 (ip), vehicle: saline): 295 % of control and 300 % of control | T/C (dose: 50.0 micrograms/kg/injection, schedule: Q04DX003 (ip), vehicle: saline): 177 % of control | T/C (dose: 60.0 micrograms/kg/injection, schedule: Q01DX009 (ip), vehicle: saline + alcohol): 314 % of control and 348 % of control | T/C (dose: 64.8 micrograms/kg/injection, schedule: Q04DX003 (ip), vehicle: saline + alcohol): 168 % of control | T/C (dose: 75.0 micrograms/kg/injection, schedule: Q01DX009 (ip), vehicle: saline + alcohol): 292 % of control and 99 % of control | T/C (dose: 75.0 micrograms/kg/injection, schedule: Q01DX009 (ip), vehicle: saline): 100 % of control | T/C (dose: 75.0 micrograms/kg/injection, schedule: Q04DX003 (ip), vehicle: saline + alcohol): 247 % of control | T/C (dose: 75.0 micrograms/kg/injection, schedule: Q04DX003 (ip), vehicle: saline): 257 % of control and 182 % of control | T/C (dose: 75.0 micrograms/kg/injection, schedule: Q04DX003 (ip), vehicle: water): 183 % of control | T/C (dose: 100.0 micrograms/kg/injection, schedule: Q01DX001 (ip), vehicle: saline): 168 % of control | T/C (dose: 100.0 micrograms/kg/injection, schedule: Q01DX009 (ip), vehicle: saline): 91 % of control and 107 % of control | T/C (dose: 100.0 micrograms/kg/injection, schedule: Q01DX009 (ip), vehicle: water): 336 % of control | T/C (dose: 100.0 micrograms/kg/injection, schedule: Q01DX010 (ip), vehicle: saline): 105 % of control and 120 % of control | T/C (dose: 100.0 micrograms/kg/injection, schedule: Q04DX003 (ip), vehicle: saline): 231 % of control | T/C (dose: 112.5 micrograms/kg/injection, schedule: Q04DX003 (ip), vehicle: saline + alcohol): 274 % of control and 161 % of control | T/C (dose: 150.0 micrograms/kg/injection, schedule: Q04DX003 (ip), vehicle: saline): 273 % of control and 306 % of control | T/C (dose: 200.0 micrograms/kg/injection, schedule: Q01DX001 (ip), vehicle: saline): 177 % of control | T/C (dose: 200.0 micrograms/kg/injection, schedule: Q01DX010 (ip), vehicle: saline): 90 % of control | T/C (dose: 225.0 micrograms/kg/injection, schedule: Q04DX003 (ip), vehicle: saline + alcohol): 290 % of control and 327 % of control and 182 % of control | T/C (dose: 300.0 micrograms/kg/injection, schedule: Q04DX003 (ip), vehicle: saline): 361 % of control | T/C (dose: 300.0 micrograms/kg/injection, schedule: Q04DX003 (ip), vehicle: water): 232 % of control | T/C (dose: 400.0 micrograms/kg/injection, schedule: Q01DX001 (ip), vehicle: saline): 227 % of control | T/C (dose: 400.0 micrograms/kg/injection, schedule: Q04DX003 (ip), vehicle: saline): 236 % of control | T/C (dose: 600.0 micrograms/kg/injection, schedule: Q04DX003 (ip), vehicle: saline + alcohol): 118 % of control | T/C (dose: 600.0 micrograms/kg/injection, schedule: Q04DX003 (ip), vehicle: water): 189 % of control

Reference: PubChem BioAssay AID328 (DTP/NCI, 2004)
